US20220281848A1, “PYRAZOLE-SUBSTITUTED PYRROLIDINONES AS HERBICIDES” (FMC Corporation, priority 2019, published 2022)

Test system: plants
Experiment: Test D pre-emergence, other plants of Tables D1 and D3
Format: in vivo
Conditions: preemergent, 20 DAA
Procedure, shortened: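 Damage was rated visually from 0 (none) to 100 (total), at 20 DAA for pre-emergence and 15 d for post-emergence. Plants grew from safener-treated seed in a glasshouse at 24/18° C. or 20/16° C. day/night, 65% humidity, watered twice daily.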

CN1C[C@H](c2nn(C)c3c(F)cccc23)[C@@H](C(=O)Nc2cccc(F)c2F)C1=O [Compound 2]
damage to plant (100=total damage to plant; 0=no damage to plant), ABUTH (rate 15): 0 | damage to plant (100=total damage to plant; 0=no damage to plant), ABUTH (rate 30): 0 | damage to plant (100=total damage to plant; 0=no damage to plant), ABUTH (rate 60): 0 | damage to plant (100=total damage to plant; 0=no damage to plant), ABUTH (rate 130): 0 | damage to plant (100=total damage to plant; 0=no damage to plant), ABUTH (rate 250): 0 | damage to plant (100=total damage to plant; 0=no damage to plant), ABUTH (rate 500): 20 | damage to plant (100=total damage to plant; 0=no damage to plant), AMARE (rate 15): 0 | damage to plant (100=total damage to plant; 0=no damage to plant), AMARE (rate 30): 0 | damage to plant (100=total damage to plant; 0=no damage to plant), AMARE (rate 60): 0 | damage to plant (100=total damage to plant; 0=no damage to plant), AMARE (rate 130): 0 | damage to plant (100=total damage to plant; 0=no damage to plant), AMARE (rate 250): 0 | damage to plant (100=total damage to plant; 0=no damage to plant), AMARE (rate 500): 0 | damage to plant (100=total damage to plant; 0=no damage to plant), BIDPI (rate 15): 0 | damage to plant (100=total damage to plant; 0=no damage to plant), BIDPI (rate 30): 0 | damage to plant (100=total damage to plant; 0=no damage to plant), BIDPI (rate 60): 0 | damage to plant (100=total damage to plant; 0=no damage to plant), BIDPI (rate 130): 0 | damage to plant (100=total damage to plant; 0=no damage to plant), BIDPI (rate 250): 0 | damage to plant (100=total damage to plant; 0=no damage to plant), BIDPI (rate 500): 0 | damage to plant (100=total damage to plant; 0=no damage to plant), BRAPL (rate 15): 0 | damage to plant (100=total damage to plant; 0=no damage to plant), BRAPL (rate 30): 70 | damage to plant (100=total damage to plant; 0=no damage to plant), BRAPL (rate 60): 80 | damage to plant (100=total damage to plant; 0=no damage to plant), BRAPL (rate 130): 80 | damage to plant (100=total damage to plant; 0=no damage to plant), BRAPL (rate 250): 90 | damage to plant (100=total damage to plant; 0=no damage to plant), BRAPL (rate 500): 90 | damage to plant (100=total damage to plant; 0=no damage to plant), CYPES (rate 15): 0 | damage to plant (100=total damage to plant; 0=no damage to plant), CYPES (rate 30): 0 | damage to plant (100=total damage to plant; 0=no damage to plant), CYPES (rate 60): 0 | damage to plant (100=total damage to plant; 0=no damage to plant), CYPES (rate 130): 0 | damage to plant (100=total damage to plant; 0=no damage to plant), CYPES (rate 250): 0 | damage to plant (100=total damage to plant; 0=no damage to plant), CYPES (rate 500): 0 | damage to plant (100=total damage to plant; 0=no damage to plant), DIGSA (rate 15): 0 | damage to plant (100=total damage to plant; 0=no damage to plant), DIGSA (rate 30): 90 | damage to plant (100=total damage to plant; 0=no damage to plant), DIGSA (rate 60): 90 | damage to plant (100=total damage to plant; 0=no damage to plant), DIGSA (rate 130): 90 | damage to plant (100=total damage to plant; 0=no damage to plant), DIGSA (rate 250): 90 | damage to plant (100=total damage to plant; 0=no damage to plant), DIGSA (rate 500): 90 | damage to plant (100=total damage to plant; 0=no damage to plant), ECHCG (rate 15): 50 | damage to plant (100=total damage to plant; 0=no damage to plant), ECHCG (rate 30): 50 | damage to plant (100=total damage to plant; 0=no damage to plant), ECHCG (rate 60): 80 | damage to plant (100=total damage to plant; 0=no damage to plant), ECHCG (rate 130): 90 | damage to plant (100=total damage to plant; 0=no damage to plant), ECHCG (rate 250): 90 | damage to plant (100=total damage to plant; 0=no damage to plant), ECHCG (rate 500): 90 | damage to plant (100=total damage to plant; 0=no damage to plant), ELEIN (rate 15): 0 | damage to plant (100=total damage to plant; 0=no damage to plant), ELEIN (rate 30): 0 | damage to plant (100=total damage to plant; 0=no damage to plant), ELEIN (rate 60): 0 | damage to plant (100=total damage to plant; 0=no damage to plant), ELEIN (rate 130): 0 | damage to plant (100=total damage to plant; 0=no damage to plant), ELEIN (rate 250): 0 | damage to plant (100=total damage to plant; 0=no damage to plant), ELEIN (rate 500): 0 | damage to plant (100=total damage to plant; 0=no damage to plant), EPHHL (rate 15): 0 | damage to plant (100=total damage to plant; 0=no damage to plant), EPHHL (rate 30): 0 | damage to plant (100=total damage to plant; 0=no damage to plant), EPHHL (rate 60): 0 | damage to plant (100=total damage to plant; 0=no damage to plant), EPHHL (rate 130): 0 | damage to plant (100=total damage to plant; 0=no damage to plant), EPHHL (rate 250): 0 | damage to plant (100=total damage to plant; 0=no damage to plant), EPHHL (rate 500): 10 | damage to plant (100=total damage to plant; 0=no damage to plant), GLXMA (rate 15): 0 | damage to plant (100=total damage to plant; 0=no damage to plant), GLXMA (rate 30): 0 | damage to plant (100=total damage to plant; 0=no damage to plant), GLXMA (rate 60): 0 | damage to plant (100=total damage to plant; 0=no damage to plant), GLXMA (rate 130): 0 | damage to plant (100=total damage to plant; 0=no damage to plant), GLXMA (rate 250): 0 | damage to plant (100=total damage to plant; 0=no damage to plant), GLXMA (rate 500): 0 | damage to plant (100=total damage to plant; 0=no damage to plant), IPOHE (rate 15): 0 | damage to plant (100=total damage to plant; 0=no damage to plant), IPOHE (rate 30): 0 | damage to plant (100=total damage to plant; 0=no damage to plant), IPOHE (rate 60): 0 | damage to plant (100=total damage to plant; 0=no damage to plant), IPOHE (rate 130): 0 | damage to plant (100=total damage to plant; 0=no damage to plant), IPOHE (rate 250): 0 | damage to plant (100=total damage to plant; 0=no damage to plant), IPOHE (rate 500): 0 | damage to plant (100=total damage to plant; 0=no damage to plant), ORYSA (rate 15): 0 | damage to plant (100=total damage to plant; 0=no damage to plant), ORYSA (rate 30): 0 | damage to plant (100=total damage to plant; 0=no damage to plant), ORYSA (rate 60): 0 | damage to plant (100=total damage to plant; 0=no damage to plant), ORYSA (rate 130): 0 | damage to plant (100=total damage to plant; 0=no damage to plant), ORYSA (rate 250): 0 | damage to plant (100=total damage to plant; 0=no damage to plant), ORYSA (rate 500): 0 | damage to plant (100=total damage to plant; 0=no damage to plant), PANMI (rate 15): 0 | damage to plant (100=total damage to plant; 0=no damage to plant), PANMI (rate 30): 0 | damage to plant (100=total damage to plant; 0=no damage to plant), PANMI (rate 60): 0 | damage to plant (100=total damage to plant; 0=no damage to plant), PANMI (rate 130): 0 | damage to plant (100=total damage to plant; 0=no damage to plant), PANMI (rate 250): 0 | damage to plant (100=total damage to plant; 0=no damage to plant), PANMI (rate 500): 0 | damage to plant (100=total damage to plant; 0=no damage to plant), SETFA (rate 15): 0 | damage to plant (100=total damage to plant; 0=no damage to plant), SETFA (rate 30): 80 | damage to plant (100=total damage to plant; 0=no damage to plant), SETFA (rate 60): 80 | damage to plant (100=total damage to plant; 0=no damage to plant), SETFA (rate 130): 80 | damage to plant (100=total damage to plant; 0=no damage to plant), SETFA (rate 250): 80 | damage to plant (100=total damage to plant; 0=no damage to plant), SETFA (rate 500): 90 | damage to plant (100=total damage to plant; 0=no damage to plant), SIDSP (rate 15): 0 | damage to plant (100=total damage to plant; 0=no damage to plant), SIDSP (rate 30): 0 | damage to plant (100=total damage to plant; 0=no damage to plant), SIDSP (rate 60): 0 | damage to plant (100=total damage to plant; 0=no damage to plant), SIDSP (rate 130): 0 | damage to plant (100=total damage to plant; 0=no damage to plant), SIDSP (rate 250): 0 | damage to plant (100=total damage to plant; 0=no damage to plant), SIDSP (rate 500): 0 | damage to plant (100=total damage to plant; 0=no damage to plant), SORVU (rate 15): 0 | damage to plant (100=total damage to plant; 0=no damage to plant), SORVU (rate 30): 0 | damage to plant (100=total damage to plant; 0=no damage to plant), SORVU (rate 60): 0
